From patent US4619917A, “Substituted 2-furanyl- or 5-oxo-2-furanyl methoxy phosphoryl alkyl cyclimmonium salts” (Sandoz Pharm. Corp., priority 1985, dated 1986)
Where a name gives a salt, the structure may show the parent alone.

What was measured:
[1] = test system: PAF-induced hypotension in Wistar rats; experiment: Inhibition of PAF-induced hypotension (Test D); format: in vivo, rat (male Wistar); settings: male Wistar rats
Experimental: Yet still further, the compounds of formula I are useful as inhibitors of PAF-induced hypotension as measured by their ability to inhibit the lowering of blood pressure levels induced by PAF according to the following test (Test D):
Male Wistar rats, weighing approximately 300 gm, are anesthetized and their carotid arteries cannulated to enable their diastolic and systolic arterial blood pressure measurements to be recorded. PAF is then administered intravenously at either 100 or 500 ng/kg, and the blood pressure drop (within 10 sec.) and recovery time required to reach the pre-injection blood pressure level are measured. At 100 ng/kg, a 30% decrease in blood pressure and a 3 to 4 minute recovery time are observed, whereas at 500 ng/kg, a 52% decrease in blood pressure and a 10 minute recovery time are observed. In order to measure the effectiveness of a compound for both the inhibition of blood pressure decreases and shortening of the recovery time, the test compound is administered intravenously over a range of between 5 and 7 dosage levels (1 or 2 test animals per dose) and between 1 and 5 minutes prior to the introduction of PAF to generate an ED50.

[2] = test system: PAF-mediated bronchoconstriction in guinea pigs; experiment: PAF-induced Pulmonary Inflation Pressure (PIP) Increase test (Test B); format: in vivo, guinea pig; settings: PAF 100 ng/kg iv, slowly decreases to baseline
Experimental: Furthermore, in view of their usefulness as PAF receptor antagonists, the compounds of formula I have been found useful as inhibitors of PAF-mediated bronchoconstriction, which property was evaluated by the PAF-induced Pulmonary Inflation Pressure (PIP) Increase test (Test B) as follows:
Male guinea pigs, weighing between 300 and 400 gm, are anesthetized, after which time trachea tube, carotid and jugular catheters are inserted. The test animal is then force ventilated employing a small animal Harvard respirator and the resistance to lung inflation (PIP) is measured utilizing a pressure transducer and recorder. The test compound is administered either orally at 30 minutes prior to or intravenously (jugular) at 5 minutes prior to the introduction of PAF. The PAF (C18 -Sandoz, Hanover) is dissolved in Tris-Tyrode's bovine serum albumin buffer and administered intravenously (jugular) at 100 ng/kg. Any blood pressure measurements taken are recorded from a transducer attached to the carotid catheter. […] A reading at 15 minutes after the administration of PAF is termed the endpoint PIP. The effect of the test compound on the PIP response is determined by the difference between the percent increase in maximal PIP over baseline for the test animal to which has been administered PAF and the test compound compared to the test animal to which only PAF has been administered.

[3] = test system: PAF-mediated extravasation in guinea pigs; experiment: PAF-induced Extravasation test (Test C), hemoconcentration (hematocrit); format: in vivo, guinea pig; settings: Cavia porcellus, ia, PAF 100 ng/kg iv, inhibition of percent increase in hematocrit
Experimental: Still further, the compounds of formula I are useful as inhibitors of PAF-mediated extravasation (the extrusion of plasma from the lumen of the blood vessels into the vessel wall and surrounding tissues) measured as a function of hemoconcentration according to the PAF-induced Extravasation test (Test C) as follows.
Male guinea pigs, weighing between 300 and 400 gm, are anesthetized, after which time a femoral catheter is inserted. The test compound is administered intraarterially at one to five minutes prior to the introduction of PAF. The PAF (C18 -Sandoz, Hanover) is dissolved in Tris-Tyrode's bovine serum albumin buffer and administered intravenously (jugular) at 100 ng/kg.
To determine the hematocrit value, which is employed to index hemoconcentration and is defined as the percent of packed red blood cells in a sample of blood which is centrifuged to separate plasma from the cellular components, blood samples are collected in 50 μl heparinized hematocrit tubes. […] The tubes are then centrifuged and the percent of packed red blood cells (hematocrit) is measured (PAF induces a maximal increase in hematocrit at 5 to 7 minutes subsequent to the injection of PAF). The percent increase in hematocrit over the value prior to the injection of PAF is calculated. […]

[4] = test system: human platelet aggregation (PAF-induced); experiment: Platelet Aggregation Inhibition Assay test (PAIA test): inhibition of PAF-induced human platelet aggregation in vitro; format: cell-based; settings: PAF-induced human platelet aggregation in PRP, 37° C., C-16 PAF 0.1 μM or 0.01 μM
Experimental: All of the compounds of formula I are useful as platelet activating factor inhibitors as indicated by their ability to inhibit platelet activating factor (PAF)-induced human platelet aggregation in vitro according to the Platelet Aggregation Inhibition Assay test (PAIA test) as follows:
Human subjects are kept aspirin free for one week and fasted overnight. Platelet rich plasma (PRP) is prepared by centrifugation (200×g.) of freshly drawn blood, anti-coagulated with 0.38% sodium citrate (final concentration). Platelet count is adjusted to 250,000 per μl using platelet poor plasma (PPP) obtained by a second centrifugation (700×g.) of the blood sample. An aliquot (0.38 ml.) of the PRP is dispensed into cuvettes and maintained at room temperature (22° C.) until used (but for not more than two hours). The PRP-containing cuvettes are incubated at 37° C. and stirred at 900 rpm within a Payton Aggregometer which is activated to follow the light deflection pattern prior to the addition of the test compound. […] Between one and two minutes after the addition of the test compound, the aggregation inducing agent (C-16 PAF-Sandoz-Hanover), dissolved in a buffer consisting of 0.01M Tris-Tyrodes buffer with 0.25% bovine serum albumin (pH 7.4), is added to the PRP-containing cuvettes in an amount predetermined to give a consistent aggregation response (either 0.1 μM or 0.01 μM). All aggregations are allowed to proceed for 6 minutes from the addition of the inducing agent. The aggregation response is quantitated by determining the area under the curve (AUC). The AUC calculated for the inducing agent alone is considered to be one hundred percent. The potential percent inhibition of the aggregation response is determined by dividing the AUC generated in the presence of the compound by the AUC of the inducing agent alone, multiplying by 100 and then subtracting from 100.

[5] = target: T1, Human Platelet PAF Receptor (Homo sapiens, UniProt P25105); experiment: Human Platelet PAF Receptor Assay test (Test A): inhibition of specific binding of [3H]-PAF to platelets; settings: [3H]-PAF specific binding to human platelets, room temperature, one hour
T1 construct: from tissue; host or cells: washed human platelets from blood of healthy donors
T1 sequence (P25105 whole entry): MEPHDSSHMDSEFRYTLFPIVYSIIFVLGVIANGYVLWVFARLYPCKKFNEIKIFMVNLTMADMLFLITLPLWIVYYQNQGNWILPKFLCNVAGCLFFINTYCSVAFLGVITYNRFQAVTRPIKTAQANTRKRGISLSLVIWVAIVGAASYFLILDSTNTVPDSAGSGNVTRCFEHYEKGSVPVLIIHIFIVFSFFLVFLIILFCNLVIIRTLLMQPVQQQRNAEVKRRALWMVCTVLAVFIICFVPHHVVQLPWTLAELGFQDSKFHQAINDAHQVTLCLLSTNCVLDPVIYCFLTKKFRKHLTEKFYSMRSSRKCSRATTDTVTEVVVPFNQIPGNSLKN
Experimental: Human blood is obtained by venipuncture of healthy, human donors into an anti-coagulant mixture containing 3.15% of trisodium citrate and 20 μg/ml of Prostaglandin I2 (PGI2) in a ratio of blood to anti-coagulant of 9:1. Platelet rich plasma (PRP) is prepared by centrifugation (250×g) of the blood for 20 minutes at room temperature. The PRP is then centrifuged (900×g) for 10 minutes at room temperature and the platelet pellet is washed two times with Tris-Tyrode's (TT) solution having a pH of 7.4 and containing 0.25% bovine serum albumin (BSA), and to which has been added PGI2 at a final concentration of […]. The platelets are resuspended at […] in TT/BSA containing 1.4 mM CaCl2.2H2 O and 0.7 mM MgCl2.6H2 O. All of the tests are conducted in duplicate and each of the test compounds is evaluated at concentrations of 100, 50, 1 and 0.1 μM. For each determination, the following solutions are mixed:
500 μl of the above-described platelets;
10 μl of [^3 H]-PAF (40,000 counts per minute (cpm) to a final concentration of […]); and
10 μl of the test compound at 50× the desired final concentration,
10 μl of vehicle (total bound), or
10 μl of 1.85×10^-5 M cold PAF (non-specifically bound).
Each mixture is allowed to incubate at room temperature for one hour, after which time the reaction is terminated by the addition of 500 μl of ice cold TT/BSA and centrifugation (900×g) at 4° C. for 10 minutes. […] An additional 2 ml. of Scintiverse II is then added to the vials and, after mixing, the vials are counted for 1 minute in a liquid scintillation spectrometer. The amount of specific binding is calculated as the difference in cpm between the total bound [^3 H]-PAF and non-specifically bound [^3 H]-PAF. The percent inhibition of specific binding is determined by dividing the cpm specifically bound in the presence of the test compound by the cpm specifically bound in total, multiplying by 100 and then subtracting from 100. […]

Row | IC50 [4] | IC50 [5] | Compound | decrease in blood pressure ([1]; PAF 100 ng/kg iv) | decrease in blood pressure ([1]; PAF 500 ng/kg iv) | recovery time to pre-injection blood pressure level ([1]; PAF 500 ng/kg iv) | duration of long term PIP response [2] | ED50 [3] | ED50 ([1]; Rattus norvegicus, iv, PAF-induced hypotension)
1 |  |  | 1-O-alkyl-2-acetyl-sn-glyceryl-3-phosphorylcholine [PAF] | 30% | 52% | 10 min | at least 30 minutes |  | 
2 | 10.5 µM | 1.8 µM | CCCCCCCCCCCCCCCCCCOCCC1(COP(=O)([O-])OCC[n+]2ccsc2)CCC(=O)O1 (stereo not shown) [Example 1, 3-[2-[(2-Octadecyloxy)ethyl-5-oxo-tetrahydrofuran-2-yl]methoxyhydroxyphosphinyloxy-ethane]thiazolium hydroxide-inner salt-4-oxide] |  |  |  |  | 0.25 mg/kg | 
3 | 3.5 µM | 0.47 µM | CCCCCCCCCCCCCCCCCCNC(=O)OCC1(COP(=O)([O-])OCC[n+]2ccsc2)CCCO1 (stereo not shown) [Example 3, 3-[2-[(2-Octadecylaminocarbonyloxymethyltetrahydrofuran-2-yl-methoxy)-hydroxyphosphinyloxy]-ethane]-thiazolium hydroxide inner salt-4-oxide] |  |  |  |  | 0.3 mg/kg | 1.5 mg/kg
4 | 81.5 µM | 3.3 µM | CCCCCCCCCCCCCCCCCCOCC1(COP(=O)([O-])OCC[n+]2ccsc2)CCCO1 (stereo not shown) [Example 2, 3-[2-[(2-Octadecyloxymethyltetrahydrofuran-2-yl-methoxy)-hydroxyphosphinyloxy]-ethane]-thiazolium hydroxide inner salt-4-oxide] |  |  |  |  |  | 
